# Reference: patent US20230127046A1, “G9a INHIBITOR” (RIKEN, priority 2019, published 2023)
# pIC50: −log10 of the molar value.
# Target: T1, recombinant human G9a protein (Homo sapiens, UniProt Q96KQ7)
# T1 construct: purchased BPS Bioscience Inc. #51001
# T1 sequence (Q96KQ7 785-1210 limits assumed): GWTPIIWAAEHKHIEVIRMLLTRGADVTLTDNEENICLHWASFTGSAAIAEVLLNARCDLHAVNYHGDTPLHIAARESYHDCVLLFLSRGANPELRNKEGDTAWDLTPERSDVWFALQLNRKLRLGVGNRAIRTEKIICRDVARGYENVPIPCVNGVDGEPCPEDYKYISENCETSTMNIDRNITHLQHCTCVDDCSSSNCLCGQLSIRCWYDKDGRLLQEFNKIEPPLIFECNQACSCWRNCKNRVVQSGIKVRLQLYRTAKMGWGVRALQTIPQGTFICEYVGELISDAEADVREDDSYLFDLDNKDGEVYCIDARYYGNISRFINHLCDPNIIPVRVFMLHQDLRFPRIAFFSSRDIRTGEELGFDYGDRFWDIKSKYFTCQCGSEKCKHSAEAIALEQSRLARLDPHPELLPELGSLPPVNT
# Test: G9a inhibitory activity test (ALPHA)
# Type: biochemical
# Conditions: biotinylated histone H3 peptide (1-21), SAM, read-out: Inhibitory activity (G9a IC50 value)
# Procedure: The G9a inhibitory activity of each compound was evaluated by measuring the enzymatic activity of G9a by amplified luminescence proximity homogeneous assay (ALPHA). First, 7.5 μL of a dilution of recombinant human G9a protein (BPS Bioscience Inc., #51001) diluted to 0.05 to 0.1 nM with a Tris buffer solution (50 mM Tris-HCl [pH 9.0], 50 mM NaCl, 0.01% Tween-20, 1 mM DTT), and 0.5 μL of the test compound were added to each well of a 384-well microplate (AlphaPlate-384 Shallow Well, PerkinElmer, Inc., #6008359), mixed by vortex, and incubated at room temperature for 10 minutes. 500 nM biotinylated histone H3 peptide (1-21) (AnaSpec Inc., #61702) and 150 μM SAM (Sigma-Aldrich Co. LLC, #A7007) were mixed at 1:1 in advance, and 2 μL of the mixture was added to each well, mixed by vortex, and then incubated at room temperature for 1 hour. AlphaLISA anti-H3K9me2 acceptor beads (PerkinElmer, Inc., #AL117C) and AlphaScreen streptavidin donor beads (PerkinElmer, Inc., #6760002B) were each diluted with an epigenetic buffer (PerkinElmer, Inc., AlphaLISA Epigenetics Buffer Kit #AL008C) to a final concentration of […] after addition. These dilutions were added to the reaction solution in the dark and incubated at room temperature for 1 hour in the dark. Then, measurement was performed using the EnSpire Alpha plate reader (PerkinElmer, Inc., Waltham, Mass., USA). The G9a inhibitory activity of the test compound was calculated as a compound concentration necessary for suppressing G9a enzymatic activity by 50% (IC50 value), by determining the percent inhibition of the compound when the value of a control without the addition of the compound was defined as 0% and the value of a control without the addition of the enzyme was defined as 100%.
row,pIC50,SMILES
1,≤ 6.70,CCCCC(NC(=O)c1[nH]c2c(c1C)C(=O)CC(C)(C)C2)C(=O)Nc1ccc(N2CCN(C)CC2)cc1 (stereo not shown) [Example 1-103]
2,≤ 6.70,CCCCC(NC(=O)c1[nH]c2c(c1C)C(=O)CC(C)(C)C2)C(=O)Nc1ccc(F)cc1 (stereo not shown) [Example 1-26]
3,≤ 6.70,CCCCC(NC(=O)c1[nH]c2c(c1C)C(=O)CC(C)(C)C2)C(=O)Nc1cccc2c1CCN(C)C2 (stereo not shown) [Example 1-55]
4,≤ 6.70,COCc1ccc(NC(=O)C(CCC2CC2)NC(=O)c2[nH]c3c(c2C)C(=O)CC(C)(C)C3)cn1 (stereo not shown) [Example 1-60]
5,≤ 6.70,CCCCC(NC(=O)c1[nH]c2c(c1C)C(=O)CC(C)(C)C2)C(=O)Nc1c(C)cccc1OC (stereo not shown) [Example 1-36]
6,> 7.30,CCCCC(NC(=O)c1[nH]c2c(c1C)C(=O)CC(C)(C)C2)C(=O)Nc1ccc(OC2CCN(C)CC2)cc1OC (stereo not shown) [Example 1-8]
7,6.70 to 7.30,CCCCC(NC(=O)c1[nH]c2c(c1C)C(=O)CC(C)(C)C2)C(=O)Nc1ccccc1CC (stereo not shown) [Example 1-23]
8,> 7.30,CSc1ccccc1NC(=O)C(CCC1CC1)NC(=O)c1[nH]c2c(c1C)C(=O)CC(C)(C)C2 (stereo not shown) [Example 1-83]
9,≤ 6.70,CCCCC(NC(=O)c1[nH]c2c(c1C)C(=O)CC(C)(C)C2)C(=O)NC1CCCCC1 (stereo not shown) [Example 1-24]
10,≤ 6.70,CCCCC(NC(=O)c1[nH]c2c(c1C)C(=O)CC(C)(C)C2)C(=O)Nc1ccccc1COC (stereo not shown) [Example 1-22]
11,> 7.30,CCCCC(NC(=O)c1[nH]c2c(c1C)C(=O)CC(C)(C)C2)C(=O)Nc1ccc(CN2CCCC2)cc1 (stereo not shown) [Example 1-98]
12,≤ 6.70,CCCCC(NC(=O)c1[nH]c2c(c1C)C(=O)CC(C)(C)C2)C(=O)Nc1ccc(OCCN(C)C(=O)OC(C)(C)C)nc1 (stereo not shown) [Example 1-57]
13,≤ 6.70,CCCCC(NC(=O)c1[nH]c2c(c1C)C(=O)CC(C)(C)C2)C(=O)Nc1ccccc1CCC (stereo not shown) [Example 1-19]

# Same assay, conditions: read-out: Inhibitory activity (G9a IC50)
row,SMILES,pIC50
1,Cc1c(C(=O)NC(CCC2CC2)C(=O)N2CCc3cc(N4CCOCC4)ccc32)[nH]c2c1C(=O)CC(C)(C)C2 (stereo not shown) [Example 1-147],≤ 6.70
2,"CCCC[C@H](NC(=O)c1[nH]c2c(c1C)C(=O)CC(C)(C)C2)C(=O)NCc1ccc(N2CCN(CCO)CC2)cc1 [Example 23, (S)-N-(1-((4-(4-(2-hydroxyethyl)piperazin-1-yl)benzyl)amino)-1-oxohexan-2-yl)-3,6,6-trimethyl-4-oxo-4,5,6,7-tetrahydro-1H-indole-2-carboxamide]",≤ 6.70
3,Cc1c(C(=O)NC(CCC2CC2)C(=O)N2CCc3c(O)cccc32)[nH]c2c1C(=O)CC(C)(C)C2 (stereo not shown) [Example 1-117],≤ 6.70
4,CCCCC(NC(=O)c1[nH]c2c(c1C)C(=O)CC(C)(C)C2)C(=O)Nc1cccc2c1CCN(C(=O)OC(C)(C)C)C2 (stereo not shown) [Example 1-115],≤ 6.70
5,Cc1c(C(=O)NC(CCC2CC2)C(=O)Nc2ccc(CCN(C)C)cc2)[nH]c2c1C(=O)CC(C)(C)C2 (stereo not shown) [Example 1-139],> 7.30
6,Cc1c(C(=O)NC(CCC2CC2)C(=O)N2CCc3c(CN4CCCC4)cccc32)[nH]c2c1C(=O)CC(C)(C)C2 (stereo not shown) [Example 1-126],> 7.30
7,Cc1c(C(=O)NC(CCC2CC2)C(=O)N2CCc3cc(OCCN(C)C)ccc32)[nH]c2c1C(=O)CC(C)(C)C2 (stereo not shown) [Example 1-134],6.70 to 7.30
8,Cc1c(C(=O)NC(CCC2CC2)C(=O)N2CCc3c(CN4CCCCC4)cccc32)[nH]c2c1C(=O)CC(C)(C)C2 (stereo not shown) [Example 1-128],> 7.30
9,Cc1c(C(=O)NC(CCC2CC2)C(=O)Nc2ccc(CN(C)C)cc2)[nH]c2c1C(=O)CC(C)(C)C2 (stereo not shown) [Example 1-138],> 7.30
10,Cc1c(C(=O)NC(CCC2CC2)C(=O)N2CCc3cc(CN4CCOCC4)ccc32)[nH]c2c1C(=O)CC(C)(C)C2 (stereo not shown) [Example 1-143],≤ 6.70

# Results, then the compound that gave them:
row,pIC50,SMILES
1,≤ 6.70,Cc1c(C(=O)N[C@H](CCC2CC2)C(=O)N(C)[C@H](C)c2ccccc2)[nH]c2c1C(=O)CC(C)(C)C2 [Example 13-4]
2,≤ 6.70,Cc1c(C(=O)NC(CCC2CC2)c2nc3c(CN4CCN(C)CC4)cccc3n2C)[nH]c2c1C(=O)CC(C)(C)C2 (stereo not shown) [Example 31-6]
3,≤ 6.70,CCCC[C@H](NC(=O)c1[nH]c2c(c1C)C(=O)CC(C)(C)C2)c1nc2ccc(OC3CCN(C)CC3)cc2[nH]1 [Example 34-4]
4,> 7.30,CCCC[C@H](NC(=O)c1[nH]c2c(c1C)C(=O)CC(C)(C)C2)C(=O)NCc1ccc(N2CCNCC2)cc1 [Example 26-8]
5,6.70 to 7.30,Cc1ccc(NC(=O)C(CCC2CC2)NC(=O)c2[nH]c3c(c2C(C)C)C(=O)CC(C)(C)C3)cn1 (stereo not shown) [Example 6-5]
6,≤ 6.70,CCCCC(NC(=O)c1[nH]c2c(c1C)C(=O)CC(C)(C)C2)C(=O)Nc1cccnc1CC (stereo not shown) [Example 6-23]
7,> 7.30,"CCc1cc(C)ccc1NC(=O)C(CCC1CC1)NC(=O)c1[nH]c2c(c1C)C(=O)CC(C)(C)C2 (stereo not shown) [Example 14-1, N-[4-cyclopropyl-1-(2-ethyl-4-methylamino)-1-oxobutan-2-yl]-3,6,6-trimethyl-4-oxo-5,7-dihydro-1H-indole-2-carboxamide]"
8,≤ 6.70,Cc1c(C(=O)NC(C(=O)Nc2ccc(OC3CCN(C)CC3)nc2)c2ccc(Cl)cc2)[nH]c2c1C(=O)CC(C)(C)C2 (stereo not shown) [Example 6-29]
9,≤ 6.70,CCCCC(NC(=O)Cc1ccc(C)cc1)C(=O)Nc1ccc(OC2CCN(C)CC2)nc1 (stereo not shown) [Example 11-8]
10,≤ 6.70,CCCC[C@@H](CNc1ccc(N2CCN(C)CC2)cc1)NC(=O)c1[nH]c2c(c1C)C(=O)CC(C)(C)C2 [Example 17-2]
11,≤ 6.70,CCCC[C@H](NC(=O)c1[nH]c2c(c1C)C(=O)CC(C)(C)C2)C(=O)NCc1ccc(N2CCN(CC)CC2)cc1 [Example 22-3]
12,> 7.30,CCCCC(NC(=O)c1[nH]c2c(c1C)C(=O)CC(C)(C)C2)C(=O)NCc1ccc(CN2CCC(F)CC2)cc1 (stereo not shown) [Example 18-10]
13,6.70 to 7.30,COc1ccc(NC(=O)C(CCC2CC2)NC(=O)c2ccc(-n3ccc4cnccc43)cc2)cn1 (stereo not shown) [Example 6-58]
14,≤ 6.70,COc1ccc(NC(=O)C(CCC2CC2)NC(=O)c2ccc(Nc3ccncc3)cn2)cn1 (stereo not shown) [Example 6-76]
15,≤ 6.70,CCN(CC)Cc1cccc2c1nc(C(CCC1CC1)NC(=O)c1[nH]c3c(c1C)C(=O)CC(C)(C)C3)n2C (stereo not shown) [Example 31-4]
16,≤ 6.70,"CCCCC(NC(=O)c1[nH]c2c(c1C)C(=O)CC(C)(C)C2)C(=O)Nc1cccc2c1CCNC2 (stereo not shown) [Example 25-1, 3,6,6-trimethyl-4-oxo-N-[1-oxo-1-(1,2,3,4-tetrahydroisoquinolin-5-ylamino)hexan-2-yl]-5,7-dihydro-1H-indole-2-carboxamide]"
17,> 7.30,CN(C)c1ccc(NC(=O)C(CCC2CC2)NC(=O)c2ccc(Nc3ccncc3)cc2)cn1 (stereo not shown) [Example 6-85]
18,> 7.30,CCCC[C@H](NC(=O)c1[nH]c2c(c1C)C(=O)CC(C)(C)C2)C(=O)N[C@@H](CC)c1ccccc1 [Example 6-38]
19,≤ 6.70,"Cc1c(C(=O)NC(CCC2CC2)c2nc3cccc(CN(C)C)c3n2C)[nH]c2c1C(=O)CC(C)(C)C2 (stereo not shown) [Example 31-1, N-[3-cyclopropyl-1-[7-[(dimethylamino)methyl]-1-methylbenzoimidazol-2-yl]propyl]-3,6,6-trimethyl-4-oxo-5,7-dihydro-1H-indole-2-carboxamide]"
20,≤ 6.70,COc1ccc(NC(=O)C(CCC2CC2)NC(=O)c2ccc(OCCN(C)C)cc2)cn1 (stereo not shown) [Example 6-67]
21,≤ 6.70,CCCCC(NC(=O)c1cc2cc(OCC)ccc2[nH]1)C(=O)Nc1ccc(OC2CCN(C)CC2)nc1 (stereo not shown) [Example 6-94]
22,> 7.30,COc1ccc(NC(=O)C(CCC2CC2)NC(=O)c2ccc(Nc3ccncc3)cc2OC)cn1 (stereo not shown) [Example 6-79]
23,≤ 6.70,CCCCC(NC(=O)c1ccc(Nc2ccccc2)cc1C)C(=O)Nc1ccc(OC2CCN(C)CC2)nc1 (stereo not shown) [Example 11-6]
24,6.70 to 7.30,Cc1ccncc1NC(=O)C(CCC1CC1)NC(=O)c1[nH]c2c(c1C)C(=O)CC(C)(C)C2 (stereo not shown) [Example 6-4]
25,> 7.30,CCCCC(NC(=O)c1[nH]c2c(c1C)C(=O)CC(C)(C)C2)C(=O)Nc1ccc(OC2CCNCC2)nc1 (stereo not shown) [Example 26-4]
26,> 7.30,"Cc1c(C(=O)N[C@@H](CCC2CC2)C(=O)Nc2ccc(C#N)cc2)[nH]c2c1C(=O)CC(C)(C)C2 [Example 15-1, N-[(2S)-1-(4-cyanoanilino)-4-cyclopropyl-1-oxobutan-2-yl]-3,6,6-trimethyl-4-oxo-5,7-dihydro-1H-indole-2-carboxamide]"
